# Test results reported in patent publication US7183061B2, “Method of expressing Heliothis ecdysone receptor fusion protein” (Syngenta Limited, priority 1996, dated 2007).
# Molecular target: chimeric glucocorticoid VP16/Heliothis ecdysone receptor (UniProt O18473+P04150, DEL153-392/E478D/INS403[…]/INS405[…]/M398P/P396A/P400T/P406S/R399P/S397A/Y393A)
# Experiment: Maize protoplast GUS reporter assay with pMF6GRVP16HEcR and p221.9GRE6
# Format: cell-based, Heliothis virescens
# Parameters: expressed in transfected cells; host or cells: maize protoplasts (A10); stably transformed tobacco plants, pES3/pES4 (A11)
# Procedure: Protoplasts were isolated from a maize suspension culture derived from BE70×A188 embryogenic callus material, which was maintained by subculturing twice weekly in MS0.5mod. (MS medium supplemented with 3% sucrose, 690 mg/l proline, 1 g/l myo-inositol, 0.2 g/l casein acid hydrolysate, 0.5 mg/l 2,4-D, pH 5.6). Cells from suspensions two days post subculture were digested in enzyme mixture (2.0% Cellulase RS, 0.2% Pectolyase Y23, 0.5 M Mannitol, 5 mM CaCl2.2H2O, 0.5% MES, pH 5.6, ˜660 mmol/kg) using ˜10 ml/g cells, incubating at 25° C., dim light, rotating gently for ˜2 hours. The digestion mixture was sieved sequentially through 250 μm and 38 μm sieves, and the filtrate centrifuged at 700 rpm for 3.5 minutes, discarding the supernatant. The protoplasts were resuspended in wash buffer (0.358 M KCl, 1.0 mM NH4NO3, 5.0 mM CaCl2.2H2O, 0.5 mM KH2PO4, pH 4.8, ˜670 mmol/kg) and pelleted as before. This washing step was repeated. The pellet was resuspended in wash buffer and the protoplasts were counted. Transformation was achieved using a Polyethylene glycol method based on Negrutiu et al. Protoplasts were resuspended at 2×10^6/ml in MaMg medium (0.4 M Mannitol, 15 mM MgCl2, 0.1% MES, pH 5.6, ˜450 mmol/kg) aliquotting 0.5 ml/treatment (i.e. 1×10^6 protoplasts/treatment). […] Protein concentrations of tissue homogenates were determined by the Bio-Rad protein assay (Bradford, 1976). […]
# chimeric glucocorticoid VP16/Heliothis ecdysone receptor, sequence (P04150+O18473 fused with the stated changes): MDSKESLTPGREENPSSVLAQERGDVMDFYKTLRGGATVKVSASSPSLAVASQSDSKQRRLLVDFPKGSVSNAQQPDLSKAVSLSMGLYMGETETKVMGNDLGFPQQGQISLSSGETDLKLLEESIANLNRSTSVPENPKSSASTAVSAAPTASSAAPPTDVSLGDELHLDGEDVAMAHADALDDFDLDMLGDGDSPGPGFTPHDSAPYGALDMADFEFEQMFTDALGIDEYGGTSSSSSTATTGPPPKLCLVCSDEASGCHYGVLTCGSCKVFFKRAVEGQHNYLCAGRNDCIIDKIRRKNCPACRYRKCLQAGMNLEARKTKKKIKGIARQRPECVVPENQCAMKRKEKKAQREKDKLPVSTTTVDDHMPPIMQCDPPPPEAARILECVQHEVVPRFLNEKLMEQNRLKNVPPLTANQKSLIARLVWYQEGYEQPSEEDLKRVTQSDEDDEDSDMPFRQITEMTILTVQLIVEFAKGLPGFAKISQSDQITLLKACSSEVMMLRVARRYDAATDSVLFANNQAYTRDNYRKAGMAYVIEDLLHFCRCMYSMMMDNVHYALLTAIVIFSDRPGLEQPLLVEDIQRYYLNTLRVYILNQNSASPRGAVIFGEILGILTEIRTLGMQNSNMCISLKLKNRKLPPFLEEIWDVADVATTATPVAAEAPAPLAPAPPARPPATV
smiles,measurement,setting,value
"CCc1ccc(C(=O)NN(C(=O)c2cc(C)cc(C)c2)C(C)(C)C)cc1 [RH5992, 3,5-dimethylbenzoic acid 1-1(1,1-dimethylethyl)-2(4-ethylbenzoyl)hydrazide]",GUS levels relative to positive control (p35SCaMVGUS),maize protoplasts (FIG. 39),comparable to those observed with the positive control
same,levels of expression relative to pMF6GRHEcR,"maize protoplasts, 100 μM",enhanced levels of expression
